Laboratory results: PubChem BioAssay (NCI)
Several values for one entry are separate records, joined by “and”; a condition that tells them apart may be missing. Equal entries are not always repeated.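 A five-concentration, 48-hour dose response in 96-well plates underlies each endpoint, interpolated linearly between surrounding concentrations. At the GI50, growth is halved. The concentration for full growth arrest is given as TGI.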

tested on: HOP-92 NSCLC; experiment: NCI-60 cell line screen, 48 h

| Structure (SMILES) | GI50 [µM] | TGI [µM] |
| --- | --- | --- |
| CN1C/C=C\CCOc2cccc(c2)-c2ccnc(n2)Nc2cccc(c2)C1 | 0.0349 | 0.227 |
| COC(=O)C1=C(C)N(NC(=O)OC(C)(C)C)C(=O)C1=P(c1ccccc1)(c1ccccc1)c1ccccc1 |  | > 100 |
| O=C1OC(c2ccccc2)=N/C1=C\c1cccc2ccccc12 |  | > 100 |
| C[C@@H]1CC(=O)C2CCCC1C2=O (stereo partly specified) |  | > 100 |
| COC1=C(C)C(=O)c2c(c(COC(N)=O)c3n2CC2C3N2C)C1=O (stereo unspecified) |  | 0.453 |
| COc1ccc(Cn2cc3c(c2-c2ccccc2)CC(C)(C)c2cnoc2-3)cc1 | 1.96 | 32.7 |
| CN1c2ccc(Cl)cc2C(=O)NC1c1ccc([N+](=O)[O-])s1 (stereo unspecified) |  | 33.1 |
| c1cc(CNC23CC4CC(CC(C4)C2)C3)cc(C[N+](Cc2cccc(CNC34CC5CC(CC(C5)C3)C4)c2)(Cc2cccc(CNC34CC5CC(CC(C5)C3)C4)c2)Cc2cccc(CNC34CC5CC(CC(C5)C3)C4)c2)c1 (stereo unspecified) | 4.74 | 12.8 |
| Oc1cccnc1CN1CCCCC1 |  | > 100 |
| CN(C)C(=O)c1cc2cnc(Nc3ccc(-c4csc5c(=S)cc(N6CCOCC6)oc45)cc3)nc2n1C1CCCC1 | 0.115 |  |
| COC1=CC(=O)c2nc(-c3cccc(C)n3)[nH]c2C1=O | 17.4 | 43.7 |

tested on: SF-539 CNS; experiment: NCI-60 cell line screen, 48 h

| Structure (SMILES) | GI50 [µM] | TGI |
| --- | --- | --- |
| COc1cc2c3c(n(CCCNC(=O)OCC4c5ccccc5-c5ccccc54)c(=O)c2cc1OC)-c1cc2c(cc1/C3=C\CCNC(=O)OCC1c3ccccc3-c3ccccc31)OCO2 | 35.7 | > 50 µM |
| NC(N)=N/N=C(\c1nc2ccc([N+](=O)[O-])cc2[nH]c1=O)C(O)c1ccc([N+](=O)[O-])cc1 (stereo unspecified) |  | > 100 µM |
| N#C/C(=C1C=C(Br)/C(=N\O)C=C\1Cl)c1cccc2ccccc12 |  | 4.52 µM |
| COC(=O)[C@@H](C)CNS(=O)(=O)N(c1cc(C(F)(F)F)cc(C(F)(F)F)c1)C1CCN(Cc2ccc(F)cc2)CC1 | 13.2 | 26.4 µM |
| C=C1C(=O)O[C@@H]2/C=C(\C)CC/C=C(/COC(C)=O)C[C@@H](OC(C)=O)[C@@H]12 |  | 36.3 µM |
| COC(=O)[C@H](C)NC(=O)NC(=O)NC(=O)CI | 15.9 | 30.3 µM |
| COc1cc2c(c(OC)c1OC)-c1ccc(OC)c(=O)cc1[C@@H](NC(=O)c1ccccc1)CC2 | < 0.003 | < 0.003 µM and 0.017 µM |
| NCCCCN(CCCN)/[N+]([O-])=N\O |  | > 100 µM |
| CCOc1ccccc1NC(=O)CC(C(=O)OC)C(=O)C(=O)OC (stereo unspecified) |  | > 100 µM |
| COc1cccc2c1C(=O)c1c(O)c3c(c(O)c1C2=O)C[C@@](O)(C(C)=O)C[C@@H]3OC1OC(C)C(O)C(N)C1Br (stereo partly specified) | 0.0419 | 0.701 µM and 0.388 µM |
| CN1C/C=C\CCOc2cccc(c2)-c2ccnc(n2)Nc2cccc(c2)C1 | 0.0508 | 0.227 µM |
| COC(=O)C1=C(C)N(NC(=O)OC(C)(C)C)C(=O)C1=P(c1ccccc1)(c1ccccc1)c1ccccc1 |  | > 100 µM |
| O=C1OC(c2ccccc2)=N/C1=C\c1cccc2ccccc12 |  | > 100 µM |
| C[C@@H]1CC(=O)C2CCCC1C2=O (stereo partly specified) |  | > 100 µM |
| COC1=C(C)C(=O)c2c(c(COC(N)=O)c3n2CC2C3N2C)C1=O (stereo unspecified) |  | 0.12 µM |
| COc1ccc(Cn2cc3c(c2-c2ccccc2)CC(C)(C)c2cnoc2-3)cc1 | 2.18 | 6.02 µM |
| CN1c2ccc(Cl)cc2C(=O)NC1c1ccc([N+](=O)[O-])s1 (stereo unspecified) |  | 37.5 µM |
| c1cc(CNC23CC4CC(CC(C4)C2)C3)cc(C[N+](Cc2cccc(CNC34CC5CC(CC(C5)C3)C4)c2)(Cc2cccc(CNC34CC5CC(CC(C5)C3)C4)c2)Cc2cccc(CNC34CC5CC(CC(C5)C3)C4)c2)c1 (stereo unspecified) | 4.23 | 10.3 µM |
| Oc1cccnc1CN1CCCCC1 |  | > 100 µM |
| CN(C)C(=O)c1cc2cnc(Nc3ccc(-c4csc5c(=S)cc(N6CCOCC6)oc45)cc3)nc2n1C1CCCC1 | 0.517 | 2.03 µM |
| COC1=CC(=O)c2nc(-c3cccc(C)n3)[nH]c2C1=O | 18.8 | 36.7 µM |

tested on: RPMI-8226 leukemia; experiment: NCI-60 cell line screen, 48 h

| Structure (SMILES) | GI50 [µM] | TGI |
| --- | --- | --- |
| COc1cc2c3c(n(CCCNC(=O)OCC4c5ccccc5-c5ccccc54)c(=O)c2cc1OC)-c1cc2c(cc1/C3=C\CCNC(=O)OCC1c3ccccc3-c3ccccc31)OCO2 | > 26.3 | 48.9 µM |
| NC(N)=N/N=C(\c1nc2ccc([N+](=O)[O-])cc2[nH]c1=O)C(O)c1ccc([N+](=O)[O-])cc1 (stereo unspecified) |  | > 100 µM |
| N#C/C(=C1C=C(Br)/C(=N\O)C=C\1Cl)c1cccc2ccccc12 |  | 32.4 µM |
| COC(=O)[C@@H](C)CNS(=O)(=O)N(c1cc(C(F)(F)F)cc(C(F)(F)F)c1)C1CCN(Cc2ccc(F)cc2)CC1 | 7.57 | 25.6 µM |
| C=C1C(=O)O[C@@H]2/C=C(\C)CC/C=C(/COC(C)=O)C[C@@H](OC(C)=O)[C@@H]12 |  | > 41.7 µM |
| COC(=O)[C@H](C)NC(=O)NC(=O)NC(=O)CI | 3.64 | 18.3 µM |
| COc1cc2c(c(OC)c1OC)-c1ccc(OC)c(=O)cc1[C@@H](NC(=O)c1ccccc1)CC2 |  | > 80.7 µM |
| NCCCCN(CCCN)/[N+]([O-])=N\O |  | > 100 µM |
| CCOc1ccccc1NC(=O)CC(C(=O)OC)C(=O)C(=O)OC (stereo unspecified) |  | > 100 µM |
| COc1cccc2c1C(=O)c1c(O)c3c(c(O)c1C2=O)C[C@@](O)(C(C)=O)C[C@@H]3OC1OC(C)C(O)C(N)C1Br (stereo partly specified) | 0.0124 | 0.702 µM and 0.263 µM |
| CN1C/C=C\CCOc2cccc(c2)-c2ccnc(n2)Nc2cccc(c2)C1 | 0.0804 | 0.318 µM |
| COC(=O)C1=C(C)N(NC(=O)OC(C)(C)C)C(=O)C1=P(c1ccccc1)(c1ccccc1)c1ccccc1 |  | > 100 µM |
| O=C1OC(c2ccccc2)=N/C1=C\c1cccc2ccccc12 |  | > 100 µM |
| C[C@@H]1CC(=O)C2CCCC1C2=O (stereo partly specified) |  | > 100 µM |
| COC1=C(C)C(=O)c2c(c(COC(N)=O)c3n2CC2C3N2C)C1=O (stereo unspecified) |  | 0.117 µM |
| COc1ccc(Cn2cc3c(c2-c2ccccc2)CC(C)(C)c2cnoc2-3)cc1 | 3.09 | > 100 µM |
| CN1c2ccc(Cl)cc2C(=O)NC1c1ccc([N+](=O)[O-])s1 (stereo unspecified) |  | 26.7 µM |
| c1cc(CNC23CC4CC(CC(C4)C2)C3)cc(C[N+](Cc2cccc(CNC34CC5CC(CC(C5)C3)C4)c2)(Cc2cccc(CNC34CC5CC(CC(C5)C3)C4)c2)Cc2cccc(CNC34CC5CC(CC(C5)C3)C4)c2)c1 (stereo unspecified) | 5.51 | 16.7 µM |
| Oc1cccnc1CN1CCCCC1 |  | > 100 µM |
| CN(C)C(=O)c1cc2cnc(Nc3ccc(-c4csc5c(=S)cc(N6CCOCC6)oc45)cc3)nc2n1C1CCCC1 | 0.252 | 1.45 µM |
| COC1=CC(=O)c2nc(-c3cccc(C)n3)[nH]c2C1=O | 27 | > 100 µM |
